According to patent US20100267637A1, “TREATMENT OF MELANOMA WITH ALPHA THYMOSIN PEPTIDES IN COMBINATION WITH A KINASE INHIBITOR” (SciClone Pharmaceuticals, Inc., priority 2007, published 2010):
Where no end group is shown, it is not given here.

Test system: murine B16 melanoma cells
Assay: Anti-tumor effect: tumor size / tumor volume in mice bearing subcutaneous B16 melanoma
Assay type: in vivo, C57BL/6 mice
Conditions: for Tumor Volume (cm^3) (Mean ± SD): group mean; for PI (TV), percent inhibition of tumor volume: vs vehicle; for Tumor volumes on Day 15: Length × Width × Width/2
Experimental: The toxic effects of the dosing regimens were also monitored. […] Meanwhile 9H10 was given in two groups via i.p. on Day 3, 6 and 9. […] Tumor volume and body weight were measured every three days, and tumor weights were measured on Day 16 at the end of the study.
As per aseptic tissue culture procedures, one vial of B16 melanoma cells was removed from the liquid nitrogen stock, and placed into a 37° C. water bath. Gentle swirling was conducted until the content of the vial was thawed. Using tissue culture/sterile procedures, the cells were immediately centrifuged with a TD5A-WS centrifuge at 1000 rpm, 20-25° C., 5 min. After centrifugation, the cells were suspended in 0.1 to 0.5 mL normal saline (NS) and subcutaneously injected into 10 mice (0.1 mL/mouse, about 1×10^6 cells). After 7-10 days, when the tumor diameter was approximately 1 cm, the animals were euthanized with CO2 overdose and the tumors excised. The procedure was repeated with 20 mice to generate a sufficient number of B16 melanoma cells with adequate transplantability.
On the day of tumor implantation, approximately 1×10^6 cells in 0.1 mL were subcutaneously injected on the right axillary area of each mouse. The day of tumor implantation was defined as Day 0.
On Day 3, the animals were randomly assigned into nine different weight-matched and tumor-size-matched groups. Dosing was started on Day 3 using the regimen according to Table 2.
From Day 1 to Day 15, mortality and moribundity were checked twice daily, the body weights were recorded once every 3 days, and tumors were measured using a caliper once every 3 days. At the end of the study (Day 16), the animals were euthanized by CO2 asphyxiation, and the tumors were excised and weighed.
Based on the tumor size, the tumor volume (TV) was calculated with the formula: [TV=(Length×Width×Width)/2]. And the percent inhibition (PI) of TV (PITV) was calculated according to the equation below:
PITV(%)=(TV vehicle−TVdrug treated)/TV vehicle×100
Inter-group comparison was performed in terms of tumor volume, tumor weight and body weight, using a student's t test. P values of less than 0.05 were considered to be statistically significant.

Substance: Thymosin Alpha-1 (Ac-SDAAVDTSSEITTKDLKEKKEVVEEAEN; ends and bridges not checked; UniProt P06454 2-29, looked up) [TA-1, 28 amino acid peptide, immunomodulator; test article (SciClone), 6 mg/kg s.c. daily]
- Tumor measurement L (length) (Day 9, animal M2): 0.20 cm
- Tumor measurement W (width) (Day 9, animal M2): 0.20 cm
- Tumor volume (Day 9, animal M2): 0.0040 cm^3
- Tumor measurement L (length) (Day 9, animal M3): 0.50 cm
- Tumor measurement W (width) (Day 9, animal M3): 0.50 cm
- Tumor volume (Day 9, animal M3): 0.0625 cm^3
- Tumor measurement L (length) (Day 9, animal M4): 0.20 cm
- Tumor measurement W (width) (Day 9, animal M4): 0.20 cm
- Tumor volume (Day 9, animal M4): 0.0040 cm^3
- Tumor measurement L (length) (Day 9, animal M5): 0.30 cm
- Tumor measurement W (width) (Day 9, animal M5): 0.30 cm
- Tumor volume (Day 9, animal M5): 0.0135 cm^3
- Tumor Volume (cm^3) (Mean ± SD) (Day 9): 0.009 ± 0.0192 cm^3
- PI (TV), percent inhibition of tumor volume (Day 9): 56.73%
- Tumor volume (Day 12, animal F1): 0.0625 cm^3
- Tumor measurements on Day 12, L (Day 12, animal F1): 0.50 cm
- Tumor measurements on Day 12, W (Day 12, animal F1): 0.50 cm
- Tumor volume (Day 12, animal F2): 0.0625 cm^3
- Tumor measurements on Day 12, L (Day 12, animal F2): 0.50 cm
- Tumor measurements on Day 12, W (Day 12, animal F2): 0.50 cm
- Tumor volume (Day 12, animal F3): 0.0625 cm^3
- Tumor measurements on Day 12, L (Day 12, animal F3): 0.50 cm
- Tumor measurements on Day 12, W (Day 12, animal F3): 0.50 cm
- Tumor volume (Day 12, animal F4): 0.1715 cm^3
- Tumor measurements on Day 12, L (Day 12, animal F4): 0.70 cm
- Tumor measurements on Day 12, W (Day 12, animal F4): 0.70 cm
- Tumor volume (Day 12, animal F5): 0.0005 cm^3
- Tumor measurements on Day 12, L (Day 12, animal F5): 0.10 cm
- Tumor measurements on Day 12, W (Day 12, animal F5): 0.10 cm
- Tumor volume (Day 12, animal M1): 0.0625 cm^3
- Tumor measurements on Day 12, L (Day 12, animal M1): 0.50 cm
- Tumor measurements on Day 12, W (Day 12, animal M1): 0.50 cm
- Tumor volume (Day 12, animal M2): 0.1715 cm^3
- Tumor measurements on Day 12, L (Day 12, animal M2): 0.70 cm
- Tumor measurements on Day 12, W (Day 12, animal M2): 0.70 cm
- Tumor volume (Day 12, animal M3): 0.3645 cm^3
- Tumor measurements on Day 12, L (Day 12, animal M3): 0.90 cm
- Tumor measurements on Day 12, W (Day 12, animal M3): 0.90 cm
- Tumor volume (Day 12, animal M4): 0.0625 cm^3
- Tumor measurements on Day 12, L (Day 12, animal M4): 0.50 cm
- Tumor measurements on Day 12, W (Day 12, animal M4): 0.50 cm
- Tumor volume (Day 12, animal M5): 0.3645 cm^3
- Tumor measurements on Day 12, L (Day 12, animal M5): 0.90 cm
- Tumor measurements on Day 12, W (Day 12, animal M5): 0.90 cm
- Tumor Volume (cm^3) (Mean ± SD) (Day 12): 0.139 ± 0.1301 cm^3
- PI (TV), percent inhibition of tumor volume (Day 12): 59.58%
- Tumor measurements on Day 15, L (Day 15, animal F1): 0.70 cm
- Tumor volumes on Day 15 (Day 15, animal F1): 0.1715 cm^3
- Tumor measurements on Day 15, W (Day 15, animal F1): 0.70 cm
- Tumor measurements on Day 15, L (Day 15, animal F2): 0.70 cm
- Tumor volumes on Day 15 (Day 15, animal F2): 0.1260 cm^3
- Tumor measurements on Day 15, W (Day 15, animal F2): 0.60 cm
- Tumor measurements on Day 15, L (Day 15, animal F3): 0.60 cm
- Tumor volumes on Day 15 (Day 15, animal F3): 0.1080 cm^3
- Tumor measurements on Day 15, W (Day 15, animal F3): 0.60 cm
- Tumor measurements on Day 15, L (Day 15, animal F4): 1.00 cm
- Tumor volumes on Day 15 (Day 15, animal F4): 0.2450 cm^3
- Tumor measurements on Day 15, W (Day 15, animal F4): 0.70 cm
- Tumor measurements on Day 15, L (Day 15, animal F5): 0.30 cm
- Tumor volumes on Day 15 (Day 15, animal F5): 0.0135 cm^3
- Tumor measurements on Day 15, W (Day 15, animal F5): 0.30 cm
- Tumor measurements on Day 15, L (Day 15, animal M1): 0.70 cm
- Tumor volumes on Day 15 (Day 15, animal M1): 0.1715 cm^3
- Tumor measurements on Day 15, W (Day 15, animal M1): 0.70 cm
- Tumor measurements on Day 15, L (Day 15, animal M2): 1.00 cm
- Tumor volumes on Day 15 (Day 15, animal M2): 0.5000 cm^3
- Tumor measurements on Day 15, W (Day 15, animal M2): 1.00 cm
- Tumor measurements on Day 15, L (Day 15, animal M3): 1.00 cm
- Tumor volumes on Day 15 (Day 15, animal M3): 0.5000 cm^3
- Tumor measurements on Day 15, W (Day 15, animal M3): 1.00 cm
- Tumor measurements on Day 15, L (Day 15, animal M4): 1.00 cm
- Tumor volumes on Day 15 (Day 15, animal M4): 0.4050 cm^3
- Tumor measurements on Day 15, W (Day 15, animal M4): 0.90 cm
- Tumor measurements on Day 15, L (Day 15, animal M5): 1.00 cm
- Tumor volumes on Day 15 (Day 15, animal M5): 0.5000 cm^3
- Tumor measurements on Day 15, W (Day 15, animal M5): 1.00 cm
- Tumor Volume (cm^3) (Mean ± SD) (Day 15): 0.274 ± 0.1855 cm^3
- PI (TV), percent inhibition of tumor volume (Day 15): 62.57%
- effect on tumor growth in words (daily dosing Days 3-15): effective against the tumor growth
- reduction of mean tumor volume in comparison to vehicle control (throughout the course of the study, 6 mg/kg s.c. daily): 50-60%
